Results reported in publication PMC6255327, “Design of Antimicrobially Active Small Amphiphilic Peptide Dendrimers” (Molecules, 2009).
In brackets after ≈: the same amount, converted by molar mass. Structures can show the parent of a compound that is named as a salt. Where two headings read alike, the source gives them in different places.

Legend:
[1] = tested on: C. parapsilosis ATCC 22019; assay type: cell-based, Candida parapsilosis; details: ATCC 22019, 48 h, pH 7
Experimental: (§1) Yeasts: Candida albicans ATCC 90028, Candida parapsilosis ATCC 22019 and Candida krusei ATCC 6258 were cultivated onto Sabouraud dextrose agar (Difco) during 24 hrs at 35 °C.
(§2) Medium: RPMI – 1640 (Sigma) supplemented with 0.2% (wt/vol) glucose, 0.3 g/L L-glutamine, 0.0053 g/L phenol red, buffered with morpholinopropanesulfonic acid (MOPS; Sigma) at a final concentration of 0.165 M and adjusted to pH 7.0 was prepared.
(§3) Reference Method: The broth microdilution susceptibility test was performed as described in Clinical and Laboratory Standards Institute (CLSI) reference method M27 – A2 (1). A series of the twofold dendrimers and amphotericin B dilutions in DMSO were diluted 1:49 with RPMI.

K. pneumoniae ATCC 13882 = assay type: cell-based, Klebsiella pneumoniae; details: ATCC 13882, 24 h
Experimental: (§4) Bacteria. Staphylococcus aureus ATCC 25923, Pseudomonas aeruginosa ATCC 27853, Escherichia coli ATCC 25922 and Staphylococcus aureus ATCC 43300 were cultivated on tryptone - soy agar (TSA; Oxoid). Klebsiella pneumoniaeATCC 13882, Bordetella bronchiseptica ATCC 4617, Acinetobacter baumannii ATCC 19606 were cultivated onto nutrient agar (Difco). Escherichia coli ATCC BAA-198 was cultivated on TSA with ceftazidime (10 µg/mL or 15.7 μM; Sigma). All strains were incubated during 24 hrs at 37 °C.
(§5) Medium. Mueller – Hinton Broth (Oxoid) was supplemented with cations: 12.5 mg Mg ^++/L and25 mg Ca^++/L. The pH of the medium after sterilization is between 7.2 and 7.4 [cation–adjusted Mueller – Hinton Broth” (CAMHB)].
(§6) Reference method. Broth microdilution susceptibility test was performed as described in […] reference method M7-A7 (2). A series of the twofold dendrimers dilutions in DMSO and twofold polymyxin B and penicillin G dilutions in CAMHB were diluted […] with CAMHB. Aliquots (95 µL) were dispensed into microdilution sterile plates (Mar-Four). Then, bacteria inoculum (5 µL) containing 5 × 10^4 CFU/mL were added. The final concentration of dendrimers ranged from 128 to 2 µg/mL [or 105 to 1.6 μM for an average molecular mass for 7 series (1213) and 61 to 0.9 μM for an average molecular mass for 10 series(2,103)], polymyxin B and penicillin G from 8 – 0.15 µg /mL (or 5.8 to 0.1 μM and 21.5 to 0.4 μM, respectively for polymyxin B and penicillin G), all in twofold dilution steps. The plates were incubated at 35 °C and read after 18 or 24 hours depending on bacterial strain. MICs (Minimal Inhibitory Concentration) was defined as the lowest drug concentration that reduced growth by 100%.

A. baumani ATCC 19606 = assay type: cell-based, Acinetobacter baumannii; details: ATCC 19606, 24 h
Experimental: as §4, §5, §6

[2] = tested on: B. bronchiseptica ATCC 4617; assay type: cell-based, Bordetella bronchiseptica; details: ATCC 4617, 24 h
Experimental: as §4, §5, §6

P. aeruginosa ATCC 27853 = assay type: cell-based, Pseudomonas aeruginosa; details: ATCC 27853, 24 h
Experimental: as §4, §5, §6

S. aureus ATCC 25923 = assay: microbe, parasite or virus in culture; assay type: cell-based, Staphylococcus aureus; details: read-out: Minimal inhibitory concentration (MIC)
Experimental: as §4, §5, §6

E.coli ATCC 25922 = assay type: cell-based, Escherichia coli
Experimental: as §4, §5, §6

E. coli ATCC BAA-198 = assay type: cell-based, Escherichia coli; details: ATCC BAA-198, 24 h
Experimental: as §4, §5, §6

S. aureus ATCC 43300 = assay type: cell-based, Staphylococcus aureus; details: ATCC 43300, 24 h
Experimental: as §4, §5, §6

C. krusei ATCC 6258 = assay: microbe, parasite or virus in culture; assay type: cell-based, Candida krusei; details: read-out: Minimal inhibitory concentration (MIC)
Experimental: as §1, §2, §3

C. albicans ATCC 90028 = assay type: cell-based, Candida albicans; details: ATCC 90028, 48 h, pH 7
Experimental: as §1, §2, §3

[3] = S. aureus ATCC 25923, broth microdilution CLSI M7-A7, CAMHB pH 7.2-7.4, 35 °C, read after 18 or 24 h, MIC = lowest concentration that reduced growth by 100%
[4] = E. coli ATCC 25922, broth microdilution CLSI M7-A7, CAMHB, 35 °C, read after 18 or 24 h, 100% growth reduction

| Compound | Minimal inhibitory concentration (MIC) [1] [µM] | Minimal inhibitory concentration (MIC) (K. pneumoniae ATCC 13882) [µM] | Minimal inhibitory concentration (MIC) (A. baumani ATCC 19606) [µM] | Minimal inhibitory concentration (MIC) [2] [µM] | Minimal inhibitory concentration (MIC) (P. aeruginosa ATCC 27853) [µM] | MIC (S. aureus ATCC 25923; ATCC 25923, 24 h, pH 7.2) [µM] | Minimal inhibitory concentration (MIC) (E.coli ATCC 25922; ATCC 25922, 24 h) [µM] | Minimal inhibitory concentration (MIC) (E. coli ATCC BAA-198) [µM] | Minimal inhibitory concentration (MIC) (S. aureus ATCC 43300) [µM] | MIC (C. krusei ATCC 6258; ATCC 6258, 48 h, pH 7) [µM] | Minimal inhibitory concentration (MIC) (C. albicans ATCC 90028) [µM] | MIC (C. krusei ATCC 6258; Pichia kudriavzevii, ATCC6258, C. krusei ATCC 6258, broth microdilution CLSI M27-A2, RPMI-1640 with MOPS pH 7.0, 35 °C, read after 24 and 48 h, 100% growth reduction) [µM] | MIC (S. aureus ATCC 25923; [3]) [µM] | Minimal inhibitory concentration (MIC) (E.coli ATCC 25922; [4]) [µM] | MIC (S. aureus ATCC 25923; Staphylococcus aureus, ATCC25923, S. aureus ATCC 25923, broth microdilution CLSI M7-A7, CAMHB pH 7.2-7.4, 35 °C, read after 18 or 24 h, MIC = lowest concentration that reduced growth by 100%) [µM] |
| --- | --- | --- | --- | --- | --- | --- | --- | --- | --- | --- | --- | --- | --- | --- | --- |
| NCCCC[C@H](NC(=O)OCc1ccccc1Cl)C(=O)NCCCN[C@@H](CN(CCCNC(=O)[C@H](CCCCN)NC(=O)OCc1ccccc1Cl)CCCNC(=O)[C@H](CCCCN)NC(=O)OCc1ccccc1Cl)C(=O)NCc1ccccc1 [Compound 7e, N,N,N’-tris[(N^α-2-chlorobenzyloxycarbonyl)-L-lysil-3-aminopropyl]-L-diaminoalanine benzylamide pentahydrochloride] | 88 | >89 | >89 | 11 | 24.3 | 2.8 | 11.8 | >88 | 11.8 | 44 | >88 |  |  |  |  |
| C[C@@H]1[C@H](O)[C@@H](C)/C=C/C=C/C=C/C=C/C=C/C=C/C=C/[C@H](O[C@@H]2O[C@H](C)[C@@H](O)[C@H](N)[C@@H]2O)C[C@@H]2O[C@](O)(C[C@@H](O)C[C@@H](O)[C@H](O)CC[C@@H](O)C[C@@H](O)CC(=O)O[C@H]1C)C[C@H](O)[C@H]2C(=O)O [amphotericin B, reference compound] |  |  |  |  |  |  |  |  |  |  |  | 1.1 (≈ 1.02 µg/mL) |  |  |  |
| NCCCC[C@H](NC(=O)OCc1ccccc1Cl)C(=O)N[C@@H](Cc1ccccc1)C(=O)NCCCN(CCCC[C@@H](CO)N(CCCNC(=O)[C@H](Cc1ccccc1)NC(=O)[C@H](CCCCN)NC(=O)OCc1ccccc1Cl)CCCNC(=O)[C@H](Cc1ccccc1)NC(=O)[C@H](CCCCN)NC(=O)OCc1ccccc1Cl)CCCNC(=O)[C@H](Cc1ccccc1)NC(=O)[C@H](CCCCN)NC(=O)OCc1ccccc1Cl [Compound 10d, N,N',N,N’-tetrakis[(N^α-2-chlorobenzyloxycarbonyl)-L-lysil-L-phenylalanyl-3-aminopropyl]-L-α,ε-diaminohexanol hexahydrochloride] | 3.4 | >54 | 3.4 | 1.7 | 14 | 3.4 | 6.8 | 3.4 | 1.7 | 3.4 | 6.8 |  |  |  |  |
| NCCCC[C@H](NC(=O)OCc1ccccc1Cl)C(=O)N[C@@H](Cc1ccccc1)C(=O)NCCCN(CCCNC(=O)[C@H](Cc1ccccc1)NC(=O)[C@H](CCCCN)NC(=O)OCc1ccccc1Cl)CCC[C@@H](CO)N(CCCNC(=O)[C@H](Cc1ccccc1)NC(=O)[C@H](CCCCN)NC(=O)OCc1ccccc1Cl)CCCNC(=O)[C@H](Cc1ccccc1)NC(=O)[C@H](CCCCN)NC(=O)OCc1ccccc1Cl [Compound 10c, N,N',N,N’-tetrakis[(N^α-2-chlorobenzyloxycarbonyl)-L-lysil-L-phenylalanyl-3-aminopropyl]-L-α,δ-diaminopentanol hexahydrochloride] | 54 | 54 | 27.3 | 6.8 | 54 | 27.2 | 27.3 | 13.6 | 13.6 | 27.3 | 54 |  |  |  |  |
| NCCCC[C@H](NC(=O)OCc1ccccc1Cl)C(=O)NCCCN[C@@H](CCCCN(CCCNC(=O)[C@H](CCCCN)NC(=O)OCc1ccccc1Cl)CCCNC(=O)[C@H](CCCCN)NC(=O)OCc1ccccc1Cl)C(=O)NCc1ccccc1 [Compound 7h, N,N,N’-tris[(N^α-2-chlorobenzyloxycarbonyl)-L-lysil-3-aminopropyl]-L-lysine benzylamide penta-hydrochloride] | 86 | >86 | >86 | 5.4 | 86 | 21.6 | 86 | 43 | 21.6 | 43 | >86 |  |  |  |  |
| NCCCN(CCCN)CCCC[C@@H](CO)N(CCCN)CCCN [Compound 5d, N,N’,N,N’-tetrakis(3-aminopropyl)-L-α,ε-diaminohexanol] |  |  |  |  |  |  |  |  |  |  |  |  | 221 (≈ 79.7 µg/mL) | >221 |  |
| NCCCN(CCCN)CCC[C@@H](CO)N(CCCN)CCCN [Compound 5c, N,N’,N,N’-tetrakis(3-aminopropyl)-L-α,δ-diaminopentanol] |  |  |  |  |  |  |  |  |  |  |  |  | 113 (≈ 39.2 µg/mL) | >226 |  |
| CC1(C)S[C@@H]2[C@H](NC(=O)Cc3ccccc3)C(=O)N2[C@H]1C(=O)O [Penicillin G, reference compound] |  |  |  |  |  |  |  |  |  |  |  |  |  |  | 6.6 (≈ 2.21 µg/mL) |
